A word on the IC50: it is the concentration at which inhibition is half-maximal. As usually defined, the AC50 is the concentration giving half of the maximal activity seen. Usually EC50 stands for the concentration at which the effect is half-maximal.

Data set [1] relates to Vero. The data set is described as follows: cells. It is filed as functional. The conditions noted are these: Chlorocebus sabaeus.
Data set [2] has as its system Vero. The data set is described as follows: cells. Type of data set: functional, cell-based. The conditions noted are these: Chlorocebus sabaeus.
The target in a further data set is Cytochrome P450 2D6 (Homo sapiens, UniProt P10635).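 Note: CYP2D6 member of a cytochrome P450 panel assay.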
Sequence of Cytochrome P450 2D6 (P10635 whole entry): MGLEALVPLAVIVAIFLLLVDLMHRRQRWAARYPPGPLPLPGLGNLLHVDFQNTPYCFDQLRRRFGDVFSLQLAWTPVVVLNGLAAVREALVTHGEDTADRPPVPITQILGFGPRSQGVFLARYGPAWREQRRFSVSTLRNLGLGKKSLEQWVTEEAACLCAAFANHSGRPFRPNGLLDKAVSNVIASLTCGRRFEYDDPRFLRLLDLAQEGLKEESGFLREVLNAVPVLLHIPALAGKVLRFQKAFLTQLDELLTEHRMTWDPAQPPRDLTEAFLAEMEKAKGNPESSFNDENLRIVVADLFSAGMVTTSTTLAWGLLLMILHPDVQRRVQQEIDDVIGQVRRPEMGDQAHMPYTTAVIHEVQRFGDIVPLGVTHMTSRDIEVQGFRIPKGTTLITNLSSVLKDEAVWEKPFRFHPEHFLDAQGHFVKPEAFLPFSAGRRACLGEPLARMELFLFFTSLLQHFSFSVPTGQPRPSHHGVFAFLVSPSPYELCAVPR
Data set [3] can be described thus: HEK-293T viability loss, compound-treated – cell-based, uHTS hits, cytotoxicity control for B/T-cell NF-kB inhibitor project, dose response (AID 489019).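 Note: IC50 reflects cytotoxicity as loss of cell viability.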 Type of data set: functional.
For the next data set, the system named is Jurkat. Briefly: blockers of NF-kB activation in T cells – Jurkat, luciferase reporter, luminescence, B- and T-cell, dose response (AID 489004).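 Note: NF-kB luciferase reporter Jurkat cells stimulated with PMA plus ionomycin.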 Type of data set: functional, cell-based. The conditions noted are these: Homo sapiens. Background: A reporter such as luciferase makes a cellular process visible.
Data set [4] is described as follows: microbe, parasite or virus in culture. Type of data set: functional. To be noted: Mycobacterium tuberculosis.
Data set [5] is described as follows: viability loss of HMLE_sh_eGFP cells – cell-based, luminescence, counter-screen for HMLE_sh_ECad selective toxicity project, dose response (AID 463074).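 Note: HMLE human mammary epithelial cells expressing control shRNA against eGFP.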 It is filed as functional, Homo sapiens. (In general: A counterscreen serves to expose hits that act by an unwanted route or on another target.)
Data set [6] in a line: Luminescence Cell-Based Dose Retest to Confirm Inhibitors of Cancer Stem Cells. [Related pubchem assays (depositor defined):AID2717, AID2721]. Type of data set: functional. The conditions noted are these: Homo sapiens.
Another data set has as its target Cytochrome P450 3A4 (Homo sapiens, UniProt P08684).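 Note: CYP3A4 tested as one member of a cytochrome P450 panel screen.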
For the next data set, the target named is Cytochrome P450 2C19 (Homo sapiens, UniProt P33261). Briefly: Cytochrome panel assay with activity outcomes. Panel member name: p450-cyp2c19 Compounds with AC50 equal or less than 10 uM are considered active. It is filed as functional.
Sequence of Cytochrome P450 2C19 (P33261 whole entry): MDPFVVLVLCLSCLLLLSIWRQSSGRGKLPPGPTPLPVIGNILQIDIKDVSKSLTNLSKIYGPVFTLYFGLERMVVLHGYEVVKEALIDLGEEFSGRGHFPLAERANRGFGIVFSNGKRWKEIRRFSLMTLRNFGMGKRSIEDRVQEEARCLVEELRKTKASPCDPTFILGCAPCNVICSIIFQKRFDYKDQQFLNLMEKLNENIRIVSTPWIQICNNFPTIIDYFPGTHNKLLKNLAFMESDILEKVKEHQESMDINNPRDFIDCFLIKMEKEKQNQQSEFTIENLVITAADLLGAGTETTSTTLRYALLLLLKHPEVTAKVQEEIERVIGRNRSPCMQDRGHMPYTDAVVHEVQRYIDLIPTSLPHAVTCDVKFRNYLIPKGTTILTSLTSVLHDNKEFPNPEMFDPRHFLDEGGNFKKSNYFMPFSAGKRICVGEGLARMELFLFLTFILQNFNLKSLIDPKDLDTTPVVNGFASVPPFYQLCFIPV
Data set [7] is described as follows: fluconazole-exposed Candida albicans growth modulators – fluorescence, retest, confirmation (AID 2467). It is filed as functional, cell-based.
Data set [8] in a line: Counterscreen for AddAB inhibitors: absorbance-based bacterial cell-based high throughput dose response assay for inhibitors of bacterial viability. [Related pubchem assays (depositor defined):AID435030, AID449728, AID449731, AID488942, AID488955, AID488956]. Type of data set: functional.
Data set [9] is described as follows: NIH-3T3 fibroblast cytotoxicity, dose response, cytotoxicity control, cell-based, fluorescence, Alamar Blue, secondary assay (AID 2327).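 Note: NIH-3T3 mouse fibroblasts cultured with fluconazole at 8 µg/mL.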 It is filed as functional. Background: Resazurin is reduced to fluorescent resorufin, in cell work by metabolically active cells.
A further data set deals with T1, Exodeoxyribonuclease V (Escherichia coli (strain K12), UniProt P04993+P07648+P08394).
T1 sequence (P04993 whole entry): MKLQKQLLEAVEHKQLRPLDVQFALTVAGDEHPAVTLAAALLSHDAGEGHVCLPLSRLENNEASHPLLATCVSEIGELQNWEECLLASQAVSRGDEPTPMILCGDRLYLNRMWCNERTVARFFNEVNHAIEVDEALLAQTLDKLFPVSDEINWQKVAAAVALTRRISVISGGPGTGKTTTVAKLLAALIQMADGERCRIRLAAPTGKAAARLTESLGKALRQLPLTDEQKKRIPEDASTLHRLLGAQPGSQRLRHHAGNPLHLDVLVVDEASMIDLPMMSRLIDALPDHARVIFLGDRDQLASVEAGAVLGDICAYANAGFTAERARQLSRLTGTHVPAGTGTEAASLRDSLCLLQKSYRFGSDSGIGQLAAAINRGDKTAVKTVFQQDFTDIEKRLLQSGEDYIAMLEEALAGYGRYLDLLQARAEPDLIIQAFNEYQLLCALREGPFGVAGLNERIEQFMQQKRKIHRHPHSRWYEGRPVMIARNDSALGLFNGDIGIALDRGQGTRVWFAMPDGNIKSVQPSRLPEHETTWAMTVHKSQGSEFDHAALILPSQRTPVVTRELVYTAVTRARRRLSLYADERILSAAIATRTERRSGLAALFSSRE
T1 sequence (P07648 whole entry): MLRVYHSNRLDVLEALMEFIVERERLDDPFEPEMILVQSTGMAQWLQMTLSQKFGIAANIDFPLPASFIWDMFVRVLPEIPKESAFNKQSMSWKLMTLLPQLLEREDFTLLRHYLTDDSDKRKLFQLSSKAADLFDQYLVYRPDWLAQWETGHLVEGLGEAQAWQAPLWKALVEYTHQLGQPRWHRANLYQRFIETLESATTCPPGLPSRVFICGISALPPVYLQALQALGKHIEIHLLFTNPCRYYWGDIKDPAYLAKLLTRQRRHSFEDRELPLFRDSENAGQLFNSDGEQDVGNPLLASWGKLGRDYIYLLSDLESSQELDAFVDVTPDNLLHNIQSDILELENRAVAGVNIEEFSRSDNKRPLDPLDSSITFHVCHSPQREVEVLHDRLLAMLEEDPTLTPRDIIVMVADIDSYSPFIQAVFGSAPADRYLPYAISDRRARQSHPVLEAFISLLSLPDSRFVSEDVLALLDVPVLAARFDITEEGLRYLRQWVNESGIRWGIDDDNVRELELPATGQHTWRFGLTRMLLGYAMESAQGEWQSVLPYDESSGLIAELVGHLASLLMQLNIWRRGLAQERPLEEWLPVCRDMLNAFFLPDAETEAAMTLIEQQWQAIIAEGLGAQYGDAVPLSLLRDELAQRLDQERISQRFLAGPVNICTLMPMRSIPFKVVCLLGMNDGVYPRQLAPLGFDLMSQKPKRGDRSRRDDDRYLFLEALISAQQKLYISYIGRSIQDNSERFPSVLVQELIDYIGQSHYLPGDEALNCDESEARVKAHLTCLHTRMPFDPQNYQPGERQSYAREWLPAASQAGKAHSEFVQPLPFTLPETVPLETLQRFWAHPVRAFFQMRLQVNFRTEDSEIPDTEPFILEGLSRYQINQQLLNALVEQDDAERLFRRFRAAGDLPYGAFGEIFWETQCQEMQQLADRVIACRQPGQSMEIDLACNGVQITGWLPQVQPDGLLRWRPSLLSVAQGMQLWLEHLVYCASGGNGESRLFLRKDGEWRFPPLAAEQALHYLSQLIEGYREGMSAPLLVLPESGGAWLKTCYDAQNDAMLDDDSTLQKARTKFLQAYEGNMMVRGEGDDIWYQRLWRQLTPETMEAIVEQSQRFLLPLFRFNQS
T1 sequence (P08394 whole entry): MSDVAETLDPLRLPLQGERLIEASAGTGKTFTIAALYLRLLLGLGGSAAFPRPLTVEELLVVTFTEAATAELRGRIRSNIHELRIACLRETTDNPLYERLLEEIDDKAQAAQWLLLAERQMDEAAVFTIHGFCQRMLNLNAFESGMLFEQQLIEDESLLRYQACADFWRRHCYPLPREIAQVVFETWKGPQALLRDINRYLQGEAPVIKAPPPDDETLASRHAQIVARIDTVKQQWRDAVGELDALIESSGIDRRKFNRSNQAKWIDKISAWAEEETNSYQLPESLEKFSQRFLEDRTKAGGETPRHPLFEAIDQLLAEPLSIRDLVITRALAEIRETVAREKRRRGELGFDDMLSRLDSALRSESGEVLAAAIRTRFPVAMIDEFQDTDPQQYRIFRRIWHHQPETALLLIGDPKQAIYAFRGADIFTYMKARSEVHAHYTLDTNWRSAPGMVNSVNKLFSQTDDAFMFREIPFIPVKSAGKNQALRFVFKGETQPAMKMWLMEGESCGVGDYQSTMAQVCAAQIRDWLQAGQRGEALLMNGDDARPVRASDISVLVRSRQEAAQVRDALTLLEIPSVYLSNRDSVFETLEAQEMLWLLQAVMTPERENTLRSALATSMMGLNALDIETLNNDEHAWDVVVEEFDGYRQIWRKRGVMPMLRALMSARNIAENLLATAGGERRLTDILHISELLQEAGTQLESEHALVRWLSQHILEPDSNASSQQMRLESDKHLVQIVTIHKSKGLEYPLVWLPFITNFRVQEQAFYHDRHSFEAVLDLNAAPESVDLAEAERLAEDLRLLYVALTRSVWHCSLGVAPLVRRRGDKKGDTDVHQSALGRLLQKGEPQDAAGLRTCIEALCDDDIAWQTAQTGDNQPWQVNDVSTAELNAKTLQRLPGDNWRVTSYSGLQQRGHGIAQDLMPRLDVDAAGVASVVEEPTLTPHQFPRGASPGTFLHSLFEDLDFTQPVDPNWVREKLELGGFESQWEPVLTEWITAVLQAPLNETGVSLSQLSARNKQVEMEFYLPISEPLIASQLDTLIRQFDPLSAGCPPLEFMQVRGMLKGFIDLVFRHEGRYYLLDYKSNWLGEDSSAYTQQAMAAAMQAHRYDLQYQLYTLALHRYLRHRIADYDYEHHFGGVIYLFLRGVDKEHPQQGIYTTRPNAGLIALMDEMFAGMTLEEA
The data set is described as follows: RecBCD inhibition via phage-restricted bacterial growth – absorbance, V66 E. coli, mutant T4 phage, counter-screen for AddAB inhibitor project, dose response (AID 492957). Type of data set: functional, cell-based, Escherichia coli str. K-12 substr. MG1655.

Data set [10] deals with T2, RNA-binding protein pos-1 (Caenorhabditis elegans, UniProt G5EF15).
T2 sequence (G5EF15 whole entry): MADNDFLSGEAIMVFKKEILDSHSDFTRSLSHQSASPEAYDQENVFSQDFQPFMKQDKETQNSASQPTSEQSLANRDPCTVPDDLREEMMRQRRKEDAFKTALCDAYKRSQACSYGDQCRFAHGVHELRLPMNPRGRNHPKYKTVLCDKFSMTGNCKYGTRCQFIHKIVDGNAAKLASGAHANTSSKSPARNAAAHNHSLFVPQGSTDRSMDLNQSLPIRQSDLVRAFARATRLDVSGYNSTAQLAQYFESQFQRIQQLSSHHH
Briefly: disruptors of C. elegans POS-1 RNA interaction – biochemical, fluorescence polarization, dose response (AID 1964).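 Note: purified POS-1 fused to maltose binding protein made in E. coli; potency of compounds blocking POS-1 binding to fluorescent RNA.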

In data set [11] the target is T3, Zinc finger protein mex-5 (Caenorhabditis elegans, UniProt Q9XUB2).
T3 sequence (Q9XUB2 whole entry): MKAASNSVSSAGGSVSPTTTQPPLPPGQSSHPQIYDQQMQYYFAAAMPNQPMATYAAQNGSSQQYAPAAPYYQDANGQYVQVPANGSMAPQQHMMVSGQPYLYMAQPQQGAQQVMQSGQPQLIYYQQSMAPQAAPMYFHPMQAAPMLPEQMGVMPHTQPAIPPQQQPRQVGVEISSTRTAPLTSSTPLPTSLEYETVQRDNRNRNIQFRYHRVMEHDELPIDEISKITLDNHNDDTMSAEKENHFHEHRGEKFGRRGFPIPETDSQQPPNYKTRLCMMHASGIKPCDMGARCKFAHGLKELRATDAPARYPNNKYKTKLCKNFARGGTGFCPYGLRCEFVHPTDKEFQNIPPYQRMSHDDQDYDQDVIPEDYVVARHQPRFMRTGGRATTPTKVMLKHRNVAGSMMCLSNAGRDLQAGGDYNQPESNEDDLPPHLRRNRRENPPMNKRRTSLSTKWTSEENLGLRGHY
The data set is described as follows: potency of MEX-5 RNA-binding blockers – biochemical, C. elegans, fluorescence polarization, dose response (AID 1960).

The source made the active and inactive calls.

Sequence of Cytochrome P450 3A4 (P08684 whole entry): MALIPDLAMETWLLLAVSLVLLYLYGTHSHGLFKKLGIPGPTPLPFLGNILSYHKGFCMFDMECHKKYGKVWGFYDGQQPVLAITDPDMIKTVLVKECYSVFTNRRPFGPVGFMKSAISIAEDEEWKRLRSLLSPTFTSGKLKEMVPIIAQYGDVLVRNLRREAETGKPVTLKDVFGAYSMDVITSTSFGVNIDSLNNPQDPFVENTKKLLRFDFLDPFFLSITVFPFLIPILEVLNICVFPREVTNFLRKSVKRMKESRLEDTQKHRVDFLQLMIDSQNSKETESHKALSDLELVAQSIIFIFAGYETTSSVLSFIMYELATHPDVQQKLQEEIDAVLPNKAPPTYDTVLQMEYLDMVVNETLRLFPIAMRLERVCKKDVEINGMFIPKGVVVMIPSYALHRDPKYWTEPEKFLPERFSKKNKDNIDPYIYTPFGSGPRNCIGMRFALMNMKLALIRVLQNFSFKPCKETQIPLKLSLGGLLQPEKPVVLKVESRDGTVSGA

As to `COc1ccc(C(=O)C=Cc2ccc(OCc3ccccc3)c(OC)c2)cc1OC`, in the data set on Vero [1], the CC50 is 20.9 µM (active).

For `CCN1CCN(C(=O)C2CCN(Cc3nc(-c4cccc(Cl)c4)oc3C)CC2)CC1`, the half-inhibitory concentration (IC50) in the data set with Vero [2] is > 25 µM (active). Besides, the CC50 with Vero [1] is > 25 µM (active).

As for `ClCCn1cnc2c(SCc3ccccc3Cl)ncnc21`, the concentration for half-maximal inhibition (IC50) in the data set with Vero [2] was < 0.05 µM (active).

Take `CC(C)(CN)CN`: the AC50 result at Cytochrome P450 2D6 is on record as “inconclusive”.

As for `c1ccc2sc(Sc3ncnc4sccc34)nc2c1`, the results for the IC50 (in [3]; in the data set with Jurkat) were > 80 µM (inactive) and 0.41 µM (active), respectively. Also, the CC50 in [4] is 32.9 µM (active).

Take `Cc1csc(NC(=O)c2ccc(COc3ccccc3)o2)n1`: the AC50 in [5] was 32.2 µM (active); in data set [6], 2.62 µM (active).

Take `C[C@@H](O)CC(C)(C)N.Oc1c(Cl)c(Cl)c(Cl)c(Cl)c1Cl`: the AC50 entry is “inactive” at Cytochrome P450 2D6, “inconclusive” at Cytochrome P450 3A4 and “inactive” on Cytochrome P450 2C19.

In the case of `O=C(NNC(=O)c1cc(-c2ccncc2)nc2ccccc12)c1ccccc1O`, the EC50 is 3.18 µM (active) in [7] and > 160 µM (inactive) in data set [9]. The IC50 (in [8]; on Exodeoxyribonuclease V) was > 119 µM (inactive) throughout.

Turning to `CC(=O)Oc1cc2cccc(OC(C)=O)c(=O)c2c(OC(C)=O)c1OC(C)=O`, the values for the EC50 in data set [10] and in data set [11] were 5.6 µM (active) and 2.01 µM (active), respectively. Besides, the IC50 (in data set [8]; on Exodeoxyribonuclease V) was > 119 µM (inactive) in each case.

The record behind these values is ChEMBL document CHEMBL1201862, “PubChem BioAssay data set” (2004).
